A word on the half-life: it is the time in which the quantity being followed falls by half.

Entries after “also recorded” stand apart in the source; their conditions may differ.

Series [1] deals with offspring of TMG-treated rats. Description: Fertility of offspring of TMG-treated pregnant rats. It is filed as in vivo, rat. The settings on record: offspring bred at 5 months with untreated partners, n=6 per sex. The text has this: To determine the effects of TMG on fertility the following procedure was followed. When pups from TMG-treated pregnant rats were of breeding age (5 months) the females were placed with normal (untreated) males for 6 days. Similarly, male pups from TMG-treated rats were placed with normal (untreated) females for 6 days.

In series [2] the test system is mineralocorticoid receptors (MR). The settings on record: cited from earlier work.
Another series addresses T1, androgen receptor (Homo sapiens, UniProt P10275).
T1 sequence (P10275 1-920): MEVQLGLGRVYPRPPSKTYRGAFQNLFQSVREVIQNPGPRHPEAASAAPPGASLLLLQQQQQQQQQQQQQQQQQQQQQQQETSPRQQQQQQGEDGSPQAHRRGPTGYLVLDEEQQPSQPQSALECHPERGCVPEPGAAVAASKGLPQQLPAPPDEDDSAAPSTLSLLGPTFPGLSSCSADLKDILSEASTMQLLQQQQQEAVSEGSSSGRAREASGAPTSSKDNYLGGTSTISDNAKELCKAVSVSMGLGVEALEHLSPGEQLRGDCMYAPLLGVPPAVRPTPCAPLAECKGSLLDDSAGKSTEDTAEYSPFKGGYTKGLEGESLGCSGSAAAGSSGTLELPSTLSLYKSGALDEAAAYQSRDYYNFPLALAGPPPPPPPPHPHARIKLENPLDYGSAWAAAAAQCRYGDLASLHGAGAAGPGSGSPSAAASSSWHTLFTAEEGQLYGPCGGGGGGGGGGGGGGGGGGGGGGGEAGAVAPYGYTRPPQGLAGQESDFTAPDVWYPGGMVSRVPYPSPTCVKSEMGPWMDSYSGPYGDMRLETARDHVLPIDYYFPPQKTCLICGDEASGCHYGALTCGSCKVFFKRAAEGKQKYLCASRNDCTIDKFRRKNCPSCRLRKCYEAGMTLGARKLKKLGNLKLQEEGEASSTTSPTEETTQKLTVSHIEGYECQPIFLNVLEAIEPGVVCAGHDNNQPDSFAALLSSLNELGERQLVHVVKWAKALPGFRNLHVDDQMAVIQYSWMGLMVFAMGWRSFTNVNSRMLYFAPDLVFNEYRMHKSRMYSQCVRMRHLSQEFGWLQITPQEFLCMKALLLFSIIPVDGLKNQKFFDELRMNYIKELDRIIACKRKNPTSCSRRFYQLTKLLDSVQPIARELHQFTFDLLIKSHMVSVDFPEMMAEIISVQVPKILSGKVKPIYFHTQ
The settings on record: cited from earlier work.

Another series concerns the target T2, glucocorticoid receptor (Homo sapiens, UniProt P04150).
T2 sequence (P04150 1-777): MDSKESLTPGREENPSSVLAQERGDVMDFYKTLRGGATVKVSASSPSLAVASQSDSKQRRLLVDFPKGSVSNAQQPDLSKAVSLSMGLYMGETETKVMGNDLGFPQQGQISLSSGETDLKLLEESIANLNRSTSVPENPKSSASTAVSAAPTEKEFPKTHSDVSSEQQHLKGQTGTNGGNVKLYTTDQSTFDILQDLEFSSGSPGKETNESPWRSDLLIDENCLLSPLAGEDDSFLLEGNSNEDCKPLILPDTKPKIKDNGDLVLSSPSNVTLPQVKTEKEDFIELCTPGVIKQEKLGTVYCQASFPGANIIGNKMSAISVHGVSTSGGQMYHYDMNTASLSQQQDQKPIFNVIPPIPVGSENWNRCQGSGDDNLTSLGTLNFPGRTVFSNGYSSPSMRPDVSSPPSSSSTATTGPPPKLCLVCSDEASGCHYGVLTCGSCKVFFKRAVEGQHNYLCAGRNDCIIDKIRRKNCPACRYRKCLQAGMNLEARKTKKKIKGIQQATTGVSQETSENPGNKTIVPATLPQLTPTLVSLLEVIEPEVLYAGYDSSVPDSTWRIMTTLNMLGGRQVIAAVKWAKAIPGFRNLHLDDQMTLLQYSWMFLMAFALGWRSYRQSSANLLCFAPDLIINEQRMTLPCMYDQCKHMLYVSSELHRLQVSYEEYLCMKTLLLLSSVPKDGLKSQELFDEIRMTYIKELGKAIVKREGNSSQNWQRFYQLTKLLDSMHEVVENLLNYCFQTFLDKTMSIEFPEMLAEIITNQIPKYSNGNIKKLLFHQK
The settings on record: cited from earlier work.

Another series addresses T3, estrogen receptor (Homo sapiens, UniProt P03372).
T3 sequence (P03372 1-595): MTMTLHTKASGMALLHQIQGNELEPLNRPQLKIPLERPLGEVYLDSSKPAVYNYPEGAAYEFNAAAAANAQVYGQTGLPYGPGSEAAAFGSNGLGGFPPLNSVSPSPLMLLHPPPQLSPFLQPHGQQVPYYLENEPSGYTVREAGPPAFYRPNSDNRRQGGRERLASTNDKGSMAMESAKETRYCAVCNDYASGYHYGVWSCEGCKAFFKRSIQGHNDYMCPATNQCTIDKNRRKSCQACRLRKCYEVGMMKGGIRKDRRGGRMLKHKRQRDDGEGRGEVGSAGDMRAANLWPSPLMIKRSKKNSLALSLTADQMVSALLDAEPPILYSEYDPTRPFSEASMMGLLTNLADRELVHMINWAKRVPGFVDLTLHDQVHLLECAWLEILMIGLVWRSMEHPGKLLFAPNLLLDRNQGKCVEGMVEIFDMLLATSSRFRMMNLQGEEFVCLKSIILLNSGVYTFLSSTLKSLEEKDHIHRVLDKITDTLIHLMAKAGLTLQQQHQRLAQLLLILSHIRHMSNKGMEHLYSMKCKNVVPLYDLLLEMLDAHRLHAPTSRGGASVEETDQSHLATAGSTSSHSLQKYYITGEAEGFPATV
The settings on record: cited from earlier work.

The subject of series [3] is MMP expression (MMP-1, MMP-3) in cultured stromal cells. The settings on record: cited from earlier work.
The conditions of series [4]: species not stated; cited from earlier work.

For the compound `C[C@H](O)C(=O)[C@@]1(C)CC[C@H]2[C@@H]3CCC4=CC(=O)CCC4=C3CC[C@@]21C` [TMG, trimegestone], the “fertility of male and female offspring of treated rats” value in series [1] was “not compromised”. Besides, in series [2], the “affinity to the mineralocorticoid receptor” value is “low affinity” and the “relative binding affinity (RBA) for TMG-mineralocorticoid receptors (MR)” value is 42. Moreover, the “affinity to the androgen receptor” value at androgen receptor is “low affinity”. At glucocorticoid receptor, the “affinity to the glucocorticoid receptor” value is “low affinity”. Also, the “affinity for the estrogen receptor” value at estrogen receptor is “no measurable affinity”. The “effect on MMP expression compared to P4” value in series [3] is on record as “differential effect on MMP expression; also recorded: tighter control of MMP expression”. The half-life in series [4] is 17 h.
